Measured values from patent publication US4444776A, “Dipyrido (4,3-B) (3,4-F) indoles, process for obtaining them, therapeutical use and pharmaceutical compositions” (priority 1977, dated 1984).

How the values were obtained:
[1] = tested on: L 1210 leukemia; test: Test 10: comparison of antitumoral activity with known products, L 1210 (Tables V-VII); assay type: in vivo, mouse; conditions: J+3
Description: Test 10: Comparison of the antitumoral activity of the compound according to example 7 with that of known products
The compound of example 7, i.e. 1-(γ-diethylaminopropyl)amino-5-methyl-dipyrido-[4,3-b][3,4-f] indole or known compounds were injected into L 1210 leukemic mice 1 or 3 days after the inoculation of the cells at the doses indicated in tables V to VII and the mean survival time (MST) and the precentage of increased life span (ILS %) were measured.
Indications concerned the known products used in this example and particularly their antitumoral properties, their secondary effects and their use in man may be found in "La Chimiotherapie des Cancers", by G. MATHE and M. KENIS Expansion Scientifique Francaise, 3rd edition, Paris 1975.

[2] = tested on: leukemic cells; test: Test 20: combination of compound 21 with other drugs (Table XV); conditions: 10^5 cells, BD 40 20 mg/kg day +4, Endoxan 100 mg/kg day +3
Description: A priming dose of endoxan (100 mg/kg) was given 3 days after 10^5 leukemic cells (20 mice).

[3] = tested on: tumoral strain derived from the murine leukemia due to the C. FRIEND virus; test: Test 7: antitumoral activity in vitro on Friend leukemia tumoral strain; assay type: cell-based; conditions: HUM = 1
Description: Test 7: Study of the antitumoral activity in vitro
This activity was measured on a tumoral strain derived from the murine leukemia due to the C. FRIEND virus.
The tumoral cells multiply in suspension in a "RPMI 1640" medium (Catalogue of GIBCO Bio-cult. Ltd. Washington Road, Sandyford Industrial Estate, PAISLEY PA 3 4EP, Renfrewshire, Scotland) supplemented with 20% of embryonary calf serum, penicillin and streptomycine. The duplication time of these cells is 11 hours. The growth fraction is equal to 1 or very close to 1 (all the cells are in the cycle). The cultures are sub-culturedat time t=0 at the concentration of 2.10^5 cells per ml in Falcon dishes containing 4 ml of medium. After twenty four hours, the product to be tested was added, i.e. at a moment when the cultures are in exponential phase of growth. Twenty four hours after the addition of the product, the cells are counted and the percentage of living cells determined by an exclusion test using "trypan" blue.

[4] = tested on: L 1210 leukemia; test: Test 1: antitumoral properties on L 1210 leukemia (Table I); assay type: in vivo, mouse; conditions: 0,1 mg/mouse
Description: The lower animal antitumoral properties of the compounds according to the invention have been determined by their curative action on inoculated test L-1210 leukemia. [ZUBROD C. G., Proc. Nat. Acad. Sci. 1972, 69, 1042-1047 and SCHEPARTZ SA. SCREENING, 1971, CANCER Chemother. Rep. Part 3 vol.2 p.3].
This leukemia is maintained in ascitic form by passage (i.p. route) on CBDl (C57 B16×DBA/2)F1 mice. The preparation to be tested are injected by the intraperitoneal route at least one day after the inoculation of the cells (one injection only). The results are expressed in increased life span per cent (ILS %) according to KESSEL et al. Cancer Res. 1971, 31, 1883-1887) or in percentage of the number of cells killed by the product (the survival of the animals is proportional to the number of cells injected).
The following tests were made in groups of 10 mice, unless stipulated to the contrary.
Test 1: Study of the antitumoral properties of the compounds of the invention on L 1210 leukemia
The lower animal antitumoral properties of the compounds according to the invention were determined by their curative action on test inoculated L 1210 leukemia.
This leukemia was maintained on CBD 1 (C 57 B 16×DBA/2) F1 mice. The compounds to be tested were injected by the IP route one or more days after the inoculation of the cells (single injection). The results obtained, shown in table I hereinafter, are expressed in percentage of increase of life span (ILS %) and in percentage of the number of cells killed by the compound to be tested, the survival of the animals being proportional to the number of cells injected.
The percentage of the like span ILS % (Cancer. Res. 1971, 31, 1883-1887) is the following ratio: [formula] S^t =survival of the treated animals S^c =survival of the control animals

[5] = tested on: L 1210 leukemia; test: Test 11: L 1210 leukemic mice, examples 7 and 8 (Table VIII); assay type: in vivo, mouse; set-up: MTS: unit not given beside the values; conditions: J+1
Description: This test was carried out with 10^3, 10^4 and 10^5 leukemic cells on day J. This test was also carried out with the compound of example 7, i.e. 1-[(γ-diethylaminopropyl)amino]-5-methyl-dipyrido [4,3-b][3,4-f] indole (compound 21).

[6] = tested on: mice; test: Test 21: toxicity after intraperitoneal injection
Description: All drugs were dissolved in aqueous solutions adjusted at pH 5 with acetic acid and inoculated to the mice under a volume of 0.1 ml I.P. after dilution in Mac Coy's medium.
The toxicity of the drugs after intraperitoneal injection was estimated from the mortality rate up to the 30th day.

[7] = tested on: L1210 leukemia; test: Test 16: structure-activity of R'1 substitution, L1210 (Table XII); assay type: in vivo, mouse (C57B16xDBA/2)F1; conditions: for 60 days surv. / ILS % / Range of death: day +1
Description: Test 16: Relationship between structure and activity of various dipyrido indoles differing by the R'1 substitution.
L1210 leukemia has been maintained by weekly passages on (C57B16xDBA/2)F1 mice. On day 0, mice were inoculated by I.P. route with various numbers of L1210 ascitic tumor cells in volumes of 0.1 ml. Subsequently as indicated, drugs were administrated in Ca^++ and Mg^++ free PBS solutions (Gibco) or in Mac Coy's medium (Gibso or Microbiological Associates). […]

[8] = tested on: Lewis carcinoma (3LL); test: Test 13: Lewis carcinoma, antimetastasic effect; assay type: in vivo, BDF1 mice
Description: "carcinome pulmonaire de Lewis" (3LL), K. SUGIURA and C. C. STOCK," Cancer Res. 1955 15 38-51.
In this test, cells (10^6 cells) removed from a tumour-carrying mouse were injected into mice(BDF1) by the IM route. The mice developed, 10 to 15 days after the inoculation, a tumour at the spot where the injection was made. On the other hand, these cells made metastasis in the lung, forming colonies on the pulmonary surface. The antitumoral and antimetastasic effect of a product may therefore be judged on mice thus treated.
Investigation of the antimetastasic effect of the compounds of examples 7 and 8 of the invention
10^6 cells taken from a tumour-carrying mouse were injected by the IM route (left-band paw) into groups of 10 mice and the compounds to be tested were inoculated by the IP route on day J+5 by single or fractioned injection. The mean survival time (MST) and the increased life span (ILS %) were determined.

[9] = Table V, 10^4 cells, doses mg/mouse: example 7 0.2, Thiotepa 0.1, Mitomycine 0.016, BCNU 0.1, Methotrexate 0.250
[10] = Table V, 10^4 cells, mg/mouse: example 7 0.2, Thiotepa 0.1, Mitomycine 0.016, BCNU 0.1, Methotrexate 0.250, Endoxan 4
[11] = Table VI, 10^5 cells, mg/mouse: Thiotepa 0.1, Mitomycine C 0.016, BCNU 0.1, Methotrexate 0.250, example 7 0.2, Endoxan 4

Compound: O=NN(CCCl)C(=O)NCCCl [BCNU]
- ILS % [1, 9]: 0.9%
- MTS (mean survival time) [1, 9]: 11.1
- Range of death [1, 10]: 10 to 12 days
- ILS % [1, 11]: 0%
- MTS (mean survival time) [1, 11]: 8.8
- Range of death [1, 11]: 8-9

Compound: O=P1(N(CCCl)CCCl)NCCCO1 (centres unmarked) [Endoxan]
- ILS % ([2]; BCNU 2 mg/kg): 16.9%
- Range of death ([2]; BCNU 2 mg/kg immediately after endoxan): 11-17
- MST ([2]; BCNU 2 mg/kg, control 11.2): 13.1
- mice alive on 30th day (of 10) ([1]; Table V, 10^4 cells, Endoxan 4 mg/mouse): 3
- Range of death [1, 10]: 13 days
- ILS % [1, 11]: 105.30%
- MTS (mean survival time) [1, 11]: 18.6
- Range of death [1, 11]: 15-21

Compound: Cc1c2cc[nH]c(=O)c2cc2c1[nH]c1ccncc12 [Example 5, 1,2-dihydro-1-oxo 5-methyl-dipyrido-[4,3-b][3,4-f] indole]
- Activity (ratio of the LD50 of HUM to the LD50 of the product tested) [3]: 0.15

Compound: Cc1c2ccnc(Cl)c2cc2c1[nH]c1ccncc12 [Example 6, 1-chloro-5-methyl-dipyrido [4,3-b][3,4-f] indole]
- toxicity in L 1210 test [4]: toxic
- ILS % (difference with the controls) ([4]; 10^4 and 10^3 cells): no difference
- Activity (ratio of the LD50 of HUM to the LD50 of the product tested) [3]: 0.3

Compound: Cc1c2ccnc(NCCCN(C)C)c2cc2c1[nH]c1ccncc12 [Example 8, 1-(γ-dimethylaminopropyl)amino-5-methyl-dipyrido-[4,3-b][3,4-f] indole]
- ILS % ([5]; 10^3 cells, 0.05 mg/mouse): 34.9%
- Number of surviving mice ([5]; 10^3 cells, 0.05 mg/mouse): 1
- ILS % ([5]; 10^3 cells, 0.1 mg/mouse): 50.5%
- MTS ([5]; 10^3 cells, 0.1 mg/mouse): 16.4
- Number of surviving mice ([5]; 10^3 cells, 0.1 mg/mouse): 3
- ILS % ([5]; 10^4 cells, 0.05 mg/mouse): 34.9%
- Number of surviving mice ([5]; 10^4 cells, 0.05 mg/mouse): 1
- ILS % ([5]; 10^4 cells, 0.1 mg/mouse): 25.7%
- MTS ([5]; 10^4 cells, 0.1 mg/mouse): 13.7
- Number of surviving mice ([5]; 10^4 cells, 0.1 mg/mouse): 3
- ILS % ([5]; 10^5 cells, 0.05 mg/mouse): 28.1%
- MTS ([5]; 10^5 cells, 0.05 mg/mouse): 11.6
- ILS % ([5]; 10^5 cells, 0.1 mg/mouse): 52.5%
- MTS ([5]; 10^5 cells, 0.1 mg/mouse): 13.8
- time of deaths after drug administration ([6]; IP): 3 to 5 days
- minimal quantity resulting in 100% deaths ([6]; mouse, in vivo, ip, 43200 min): 50 mg/kg
- 60 days surv. ([7]; 10^4 cells, 2.5 mg/kg): 1
- ILS % ([7]; 10^4 cells, 2.5 mg/kg): 34.9%
- Range of death ([7]; 10^4 cells, 2.5 mg/kg): 10-19
- 60 days surv. ([7]; 10^5 cells, 5 mg/kg): 0
- ILS % ([7]; 10^5 cells, 5 mg/kg): 52.5%
- Range of death ([7]; 10^5 cells, 5 mg/kg): 11-16
- antitumoral activity compared with Ellipticinium acetate (HUM) ([7]; Table XII summary): compete favorably with Ellipticinium acetate (HUM)
- protective action concerning metastasic pulmonary invasion of the lung ([8]; IP from J+5): give a protective action
- ILS % ([8]; J+5, 5 mg/kg): 9.8%
- MST ([8]; J+5, 5 mg/kg, controls 25): 27.44
